# Data from patent US20120040953A1, “Compounds for the Treatment of Metabolic Disorders” (PROSIDION LIMITED, priority 2009, published 2012).
# System: male C57Bl/6 or male ob/ob mice
# Test: Oral glucose tolerance test in mice
# Format: in vivo
# Conditions: dose of 30 mg kg^−1, oral
# Procedure: The effects of compounds of the invention on oral glucose (Glc) tolerance were evaluated in male C57Bl/6 or male ob/ob mice. Food was withdrawn 5 h before administration of Glc and remained withdrawn throughout the study. Mice had free access to water during the study. A cut was made to the animals' tails, then blood (20 μL) was removed for measurement of basal Glc levels 45 min before administration of the Glc load. Then, the mice were weighed and dosed orally with test compound or vehicle (20% aqueous hydroxypropyl-β-cyclodextrin or 25% aqueous Gelucire 44/14) 30 min before the removal of an additional blood sample (20 μL) and treatment with the Glc load (2-5 g kg^−1 p.o.). Blood samples (20 μL) were then taken 25, 50, 80, 120, and 180 min after Glc administration. The 20 μL blood samples for measurement of Glc levels were taken from the cut tip of the tail into disposable micro-pipettes (Dade Diagnostics Inc., Puerto Rico) and the sample added to 480 μL of haemolysis reagent. Duplicate 20 μL aliquots of the diluted haemolysed blood were then added to 180 μL of Trinders glucose reagent (Sigma enzymatic (Trinder) colorimetric method) in a 96-well assay plate. After mixing, the samples were left at room temperature for 30 min before being read against Glc standards (Sigma glucose/urea nitrogen combined standard set).
compound,measurement,value
"CC(C)OC(=O)N1CCC(O[C@H](C)c2nc(-c3cnc(N4C[C@H](c5cc(F)ccc5F)[C@@H](N)C4)nc3)no2)CC1.Cc1ccc(S(=O)(=O)O)cc1 [Example 18, 4-[(R)-1-(3-{2-[(3R,4S)-3-Amino-4-(2,5-difluorophenyl)pyrrolidin-1-yl]pyrimidin-5-yl}-[1,2,4]oxadiazol-5-yl)ethoxy]piperidine-1-carboxylic acid isopropyl ester p-toluenesulfonic acid salt]",reduction in the Glc excursion,> 40%
